Measurements: patent US20150344540A1, “NOVEL GLP-1 RECEPTOR AGONISTS WITH CHOLESTEROL EFFLUX ACTIVITY” (NOVO NORDISK A/S, priority 2012, published 2015)
Read-outs that look alike come from different tables or passages of the source. Where a SMILES comes first, the peptide text is derived from it. Where no end group is shown, it is not given here. [ ]: non-standard residue; d: D form. Aib = CC(C)(N)C(=O)O

Legend:
human GLP-1 receptor [1] = target: human GLP-1 receptor (Homo sapiens, UniProt P43220); experiment: Functional GLP-1 receptor assay, in vitro potency (CRE luciferase; whole cells); type: cell-based; conditions: BHK cells expressing human GLP-1 receptor
human GLP-1 receptor [2] = target: human GLP-1 receptor (human, UniProt P43220); experiment: cell-based or functional assay
[3] = 0% HSA, read-out: GLP1R CRE luc 0% HSA EC50 Mean Value
[4] = GLP1R CRE luc 1% HSA EC50 Mean Value, 1% HSA

Sequence of human GLP-1 receptor (Homo sapiens, UniProt P43220) (P43220 24-463): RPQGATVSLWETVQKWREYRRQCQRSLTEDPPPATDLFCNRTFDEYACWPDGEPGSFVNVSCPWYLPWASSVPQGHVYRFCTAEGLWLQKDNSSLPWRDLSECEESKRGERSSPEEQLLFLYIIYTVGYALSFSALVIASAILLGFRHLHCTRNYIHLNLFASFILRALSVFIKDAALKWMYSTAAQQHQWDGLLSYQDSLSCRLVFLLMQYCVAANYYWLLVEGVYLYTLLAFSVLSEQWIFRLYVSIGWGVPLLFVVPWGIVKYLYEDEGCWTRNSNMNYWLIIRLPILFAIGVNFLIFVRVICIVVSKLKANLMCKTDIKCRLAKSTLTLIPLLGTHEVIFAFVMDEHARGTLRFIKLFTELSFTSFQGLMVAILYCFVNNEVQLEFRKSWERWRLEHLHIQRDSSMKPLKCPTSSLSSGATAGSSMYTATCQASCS

HAEGTFTSDVSSYLEGQAAKEFIAWLVEHVKEFL-NH2 [Compound 140, [Glu34,His35,Val36,Lys37]-GLP-1-(7-37)-peptidyl-Glu-Phe-Leu amide]
EC50 (human GLP-1 receptor [1]; [3]): 103 pM

HGEGTFTSDVSSYLEEEAVKEFIAWLVEKVKEF-NH2 [Compound 133, [Gly8,Glu22,Glu23,Val25,Glu34,Lys35,Val36,Lys37]-GLP-1-(7-37)-peptidyl-Glu-Phe amide]
EC50 (human GLP-1 receptor [1]; [3]): 104 pM

CC(C)C[C@H](NC(=O)[C@H](Cc1ccccc1)NC(=O)[C@H](CCC(=O)O)NC(=O)[C@H](CCCCN)NC(=O)C(C)(C)NC(=O)[C@H](CCCCN)NC(=O)[C@H](CCC(=O)O)NC(=O)[C@H](CC(C)C)NC(=O)[C@H](CC(C)C)NC(=O)[C@H](Cc1c[nH]c2ccccc12)NC(=O)[C@H](CCC(N)=O)NC(=O)[C@@H](NC(=O)[C@H](Cc1ccccc1)NC(=O)[C@H](CCC(=O)O)NC(=O)[C@H](CCCNC(=N)N)NC(=O)[C@H](C)NC(=O)[C@H](C)NC(=O)[C@H](CCCCN)NC(=O)[C@H](CO)NC(=O)[C@H](CC(=O)O)NC(=O)[C@H](CC(C)C)NC(=O)[C@H](Cc1ccc(O)cc1)NC(=O)[C@H](CCCCN)NC(=O)[C@H](CO)NC(=O)[C@H](Cc1ccc(O)cc1)NC(=O)[C@H](CC(=O)O)NC(=O)[C@H](CO)NC(=O)[C@@H](NC(=O)[C@H](Cc1ccccc1)NC(=O)[C@@H](NC(=O)CNC(=O)[C@H](CCC(N)=O)NC(=O)[C@H](CO)NC(=O)[C@@H](N)Cc1c[nH]cn1)[C@@H](C)O)[C@@H](C)O)C(C)C)C(N)=O [Compound 59] (H-HSQGTFTSDYSKYLDSKAAREFVQWLLEK[Aib]KEFL-NH2)
EC50 (human GLP-1 receptor [1]; [3]): 434 pM | EC50 (human GLP-1 receptor [1]; [4]): 198 pM

H-HAEGTFTSDVSSYLEGQAAKEFIAWLVEGVKEFLEK-OH [Compound 127, [Glu34,Val36,Lys37]-GLP-1-(7-37)-peptidyl-Glu-Phe-Leu-Glu-Lys]
EC50 (human GLP-1 receptor [1]; [4]): 23 pM

HAEGTFTSDVSSYLEGQAAKEFIAWLVEKVKEFLE-NH2 [Compound 106, [Glu34,Lys35,Val36,Lys37]-GLP-1-(7-37)-peptidyl-Glu-Phe-Leu-Glu amide]
EC50 (human GLP-1 receptor [1]; [3]): 114 pM | EC50 (human GLP-1 receptor [1]; [4]): 28 pM

B1: [Aib8,Glu23,Val25,Glu34,Lys35,Phe36,Lys37]-GLP-1-(7-37)-peptidyl-Glu-Ala-Phe amide (peptide)
peptide: H[Aib]EGTFTSDVSSYLEGEAVKEFIAWLVEKFKEAF-NH2
modifications: N-terminus assumed
SMILES: CC[C@H](C)[C@H](NC(=O)[C@H](Cc1ccccc1)NC(=O)[C@H](CCC(=O)O)NC(=O)[C@H](CCCCN)NC(=O)[C@@H](NC(=O)[C@H](C)NC(=O)[C@H](CCC(=O)O)NC(=O)CNC(=O)[C@H](CCC(=O)O)NC(=O)[C@H](CC(C)C)NC(=O)[C@H](Cc1ccc(O)cc1)NC(=O)[C@H](CO)NC(=O)[C@H](CO)NC(=O)[C@@H](NC(=O)[C@H](CC(=O)O)NC(=O)[C@H](CO)NC(=O)[C@@H](NC(=O)[C@H](Cc1ccccc1)NC(=O)[C@@H](NC(=O)CNC(=O)[C@H](CCC(=O)O)NC(=O)C(C)(C)NC(=O)[C@@H](N)Cc1c[nH]cn1)[C@@H](C)O)[C@@H](C)O)C(C)C)C(C)C)C(=O)N[C@@H](C)C(=O)N[C@@H](Cc1c[nH]c2ccccc12)C(=O)N[C@@H](CC(C)C)C(=O)N[C@H](C(=O)N[C@@H](CCC(=O)O)C(=O)N[C@@H](CCCCN)C(=O)N[C@@H](Cc1ccccc1)C(=O)N[C@@H](CCCCN)C(=O)N[C@@H](CCC(=O)O)C(=O)N[C@@H](C)C(=O)N[C@@H](Cc1ccccc1)C(N)=O)C(C)C
CRE luciferase EC50, 0% HSA (human GLP-1 receptor [2]): 372 pM | CRE luciferase EC50, 1% HSA (human GLP-1 receptor [2]): 115 pM
